In PubChem BioAssay (NCI):
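Interpolation was linear, between the two tested concentrations surrounding the appropriate level; five concentrations were tested over 48 hours in 96-well plates. At the TGI there is no net growth.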

Experiments:
Experiment in all cases: growth of human tumour cells (NCI), 48 h
[1] = tested on: MDA-MB-231 breast
[2] = tested on: EKVX NSCLC
[3] = tested on: 786-0 renal
[4] = tested on: SK-OV-3 ovarian
[5] = tested on: MALME-3M melanoma
[6] = tested on: OVCAR-4 ovarian
[7] = tested on: A549 NSCLC
[8] = tested on: U251 CNS
[9] = tested on: HOP-62 NSCLC
[10] = tested on: HL-60(TB) leukemia
[11] = tested on: HCC-2998 colon
[12] = tested on: HT29 colon
[13] = tested on: RPMI-8226 leukemia
[14] = tested on: UACC-257 melanoma
[15] = tested on: SF-539 CNS
[16] = tested on: UO-31 renal
[17] = tested on: SNB-75 CNS
[18] = tested on: HCT-116 colon
[19] = tested on: COLO 205 colon
[20] = tested on: DU-145 prostate

Measured: TGI

COC(=O)/C(=N\NC(N)=O)C(C(=O)C(=O)Nc1ccccc1OC)c1nc2ccc([N+](=O)[O-])cc2[nH]c1=O (stereo not drawn)
> 100 µM: [1] | [2] | [3] | [4] | [5] | [6] | [7] | [8] | [9] | [10] | [11] | [12] | [13] | [14] | [15] | [16] | [17] | [18]

COc1ccccc1C1C(Cl)C(=O)N1n1cnc2ccccc2c1=O (stereo not drawn)
> 100 µM: [19] | [2] | [3] | [4] | [5] | [6] | [7] | [8] | [9] | [10] | [11] | [12] | [13] | [14] | [16] | [17] | [18]

COc1ccc(N=C2S/C(=N\C(=Nc3ccccc3)SCc3ccccc3)N(c3ccccc3)C2=Nc2ccc(OC)cc2)cc1
> 100 µM: [1] | [19] | [2] | [3] | [5] | [7] | [9] | [10] | [11] | [12] | [13] | [14] | [16] | [17] | [18]

NC1=NC2=c3ccccc3=C(c3cnccn3)C2(c2cnccn2)c2ccccc21 (stereo not drawn)
> 100 µM: [19] | [2] | [3] | [4] | [5] | [6] | [7] | [8] | [9] | [10] | [11] | [12] | [13] | [14] | [15] | [16] | [17] | [18]

COC(=O)[C@H](Cc1ccccc1)NC(=O)/C(=C/C(C)C)NC(=O)[C@H](CCSC)NC=O
> 100 µM: [19] | [2] | [3] | [4] | [6] | [7] | [8] | [9] | [10] | [11] | [12] | [13] | [14] | [15] | [16] | [17] | [18]

O=C(O)CSCc1cc2c(O)c(c1)Cc1cc(CSCC(=O)O)cc(c1O)Cc1cc(CSCC(=O)O)cc(c1O)Cc1cc(CSCC(=O)O)cc(c1O)C2
> 100 µM: [19] | [2] | [3] | [4] | [5] | [20] | [6] | [7] | [8] | [9] | [10] | [11] | [12] | [13] | [14] | [15] | [16] | [18]

CCN1CCCC(C#N)(c2ccccc2)CC1 (stereo not drawn)
> 100 µM: [19] | [2] | [3] | [4] | [5] | [20] | [6] | [7] | [8] | [9] | [10] | [11] | [12] | [13] | [14] | [16] | [17] | [18]

Oc1cc(O)c2ccc(-c3ccc(O)c(O)c3)[o+]c2c1
> 100 µM: [2] | [3] | [4] | [5] | [6] | [7] | [8] | [9] | [10] | [11] | [12] | [13] | [14] | [15] | [16] | [17] | [18]
